We go through six compounds from patent US20160271263A1 (Novo Nordisk A/S, priority 2010, published 2016).

Numbered stars: 1 amine (or outer) side, 2 acyl side, 3 side chain; on linkers, the order of the positions; unused ones are H or OH. Square brackets hold non-standard residues; d marks the D form. Side chains are listed from the residue outwards. Peptide text beside a SMILES is read from it. * marks the point of attachment. C18 diacid = O=C(O)CCCCCCCCCCCCCCCCC(=O)*; γGlu = O=C(O)[C@H](CCC(=O)[*:2])N[*:1]; AEEA = NCCOCCOCC(=O)O

glucagon receptor, sequence (P47871 26-477): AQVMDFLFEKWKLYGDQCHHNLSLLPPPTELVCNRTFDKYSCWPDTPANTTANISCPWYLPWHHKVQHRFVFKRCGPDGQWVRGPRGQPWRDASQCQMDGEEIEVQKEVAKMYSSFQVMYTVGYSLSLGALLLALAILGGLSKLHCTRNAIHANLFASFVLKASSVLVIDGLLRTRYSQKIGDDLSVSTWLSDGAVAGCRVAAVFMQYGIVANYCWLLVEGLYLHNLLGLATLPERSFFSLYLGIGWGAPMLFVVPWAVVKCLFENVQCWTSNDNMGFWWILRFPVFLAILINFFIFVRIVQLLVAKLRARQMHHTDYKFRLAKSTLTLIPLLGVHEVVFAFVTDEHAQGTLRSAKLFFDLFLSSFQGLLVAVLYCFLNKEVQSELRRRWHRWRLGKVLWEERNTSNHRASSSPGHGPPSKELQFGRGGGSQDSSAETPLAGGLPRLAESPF

The experiment addresses glucagon receptor (Homo sapiens, UniProt P47871). Kind of experiment: cell-based.
Method: The cells (14000 per well) were incubated (37° C., 5% CO2) overnight in 384-well plates. Next day the cells were loaded with a calcium responsive dye that only distributed into the cytoplasm. Probenecid, an inhibitor of the organic anion transporter, was added to prevent the dye from leaving the cell. A PDE inhibitor was added to prevent formatted cAMP from being degraded. […] End point data were collected after 6 minutes. An increase in intracellular cAMP was proportional to an increased in calcium concentrations in the cytoplasm. […] EC50-values were calculated in Prism5.
The EC50 is the concentration giving half of the maximal effect. Low values mean an effect from little substance, high ones a need for much substance. Take `CC(C)C[C@H](NC(=O)[C@H](Cc1ccc(O)cc1)NC(=O)[C@H](CCCCN)NC(=O)[C@H](CO)NC(=O)[C@H](Cc1ccc(O)cc1)NC(=O)[C@H](CC(=O)O)NC(=O)[C@H](CO)NC(=O)[C@@H](NC(=O)[C@H](Cc1ccccc1)NC(=O)[C@@H](NC(=O)CNC(=O)[C@H](CCC(N)=O)NC(=O)[C@@H](CO)NC(=O)[C@@H](N)Cc1c[nH]cn1)[C@@H](C)O)[C@@H](C)O)C(=O)N[C@@H](CC(=O)O)C(=O)N[C@@H](CCC(=O)O)C(=O)N[C@@H](CCCNC(=N)N)C(=O)N[C@@H](CCCNC(=N)N)C(=O)N[C@@H](C)C(=O)N[C@@H](CCC(N)=O)C(=O)N[C@@H](CC(=O)O)C(=O)N[C@@H](Cc1ccccc1)C(=O)N[C@H](C(=O)N[C@@H](CCCCNC(=O)COCCOCCNC(=O)COCCOCCNC(=O)CC[C@H](NC(=O)CCCCCCCCCCCCCCCCC(=O)O)C(=O)O)C(=O)N[C@@H](Cc1c[nH]c2ccccc12)C(=O)N[C@@H](CC(C)C)C(=O)N[C@@H](CC(C)C)C(=O)N[C@@H](CC(N)=O)C(=O)N[C@H](C(=O)O)[C@@H](C)O)C(C)C` [Example 2] (H-H[dS]QGTFTSDYSKYLDERRAQDFVK([AEEA-AEEA-γGlu-C18 diacid])WLLNT-OH; N-terminus and C-terminus assumed): the midpoint of the response, the EC50, lay at 0.149 nM.
The same measure for `CC(C)C[C@H](NC(=O)[C@H](Cc1ccc(O)cc1)NC(=O)[C@H](CCCCN)NC(=O)[C@H](CO)NC(=O)[C@H](Cc1ccc(O)cc1)NC(=O)[C@H](CC(=O)O)NC(=O)[C@H](CO)NC(=O)[C@@H](NC(=O)[C@H](Cc1ccccc1)NC(=O)[C@@H](NC(=O)CNC(=O)[C@H](CCC(N)=O)NC(=O)[C@H](CO)NC(=O)[C@@H](N)Cc1c[nH]cn1)[C@@H](C)O)[C@@H](C)O)C(=O)N[C@@H](CC(=O)O)C(=O)N[C@@H](CO)C(=O)N[C@@H](CCCCN)C(=O)N[C@@H](CCCNC(=N)N)C(=O)N[C@@H](C)C(=O)N[C@@H](CCC(N)=O)C(=O)N[C@@H](CCC(=O)O)C(=O)N[C@@H](Cc1ccccc1)C(=O)N[C@H](C(=O)N[C@@H](CCCCNC(=O)COCCOCCNC(=O)COCCOCCNC(=O)CC[C@H](NC(=O)CCCCCCCCCCCCCCCCC(=O)O)C(=O)O)C(=O)N[C@@H](Cc1c[nH]c2ccccc12)C(=O)N[C@@H](CC(C)C)C(=O)N[C@@H](CC(C)C)C(=O)N[C@@H](CC(N)=O)C(=O)N[C@H](C(=O)O)[C@@H](C)O)C(C)C` [Example 4] (H-HSQGTFTSDYSKYLDSKRAQEFVK([AEEA-AEEA-γGlu-C18 diacid])WLLNT-OH; N-terminus and C-terminus assumed): 0.022 nM.
The result for `CC(C)C[C@H](NC(=O)[C@H](Cc1ccc(O)cc1)NC(=O)[C@H](CCCCN)NC(=O)[C@H](CO)NC(=O)[C@H](Cc1ccc(O)cc1)NC(=O)[C@H](CC(=O)O)NC(=O)[C@H](CO)NC(=O)[C@@H](NC(=O)[C@H](Cc1ccccc1)NC(=O)[C@@H](NC(=O)CNC(=O)[C@H](CCC(N)=O)NC(=O)[C@H](CO)NC(=O)[C@@H](N)Cc1c[nH]cn1)[C@@H](C)O)[C@@H](C)O)C(=O)N[C@@H](CC(=O)O)C(=O)N[C@@H](CCCCNC(=O)COCCOCCNC(=O)COCCOCCNC(=O)CC[C@H](NC(=O)CCCCCCCCCCCCCCCCC(=O)O)C(=O)O)C(=O)N[C@@H](CCCCN)C(=O)N[C@@H](CCCNC(=N)N)C(=O)N[C@@H](C)C(=O)N[C@@H](CCC(N)=O)C(=O)N[C@@H](CCC(=O)O)C(=O)N[C@@H](Cc1ccccc1)C(=O)N[C@H](C(=O)N[C@@H](CCC(N)=O)C(=O)N[C@@H](Cc1c[nH]c2ccccc12)C(=O)N[C@@H](CC(C)C)C(=O)N[C@@H](CC(C)C)C(=O)N[C@@H](CC(N)=O)C(=O)N[C@H](C(=O)O)[C@@H](C)O)C(C)C` [Example 5] (H-HSQGTFTSDYSKYLDK([AEEA-AEEA-γGlu-C18 diacid])KRAQEFVQWLLNT-OH; N-terminus and C-terminus assumed) reads 0.02 nM; that for `CC(C)C[C@H](NC(=O)[C@H](Cc1ccc(O)cc1)NC(=O)[C@H](CCCCN)NC(=O)[C@H](CO)NC(=O)[C@H](Cc1ccc(O)cc1)NC(=O)[C@H](CC(=O)O)NC(=O)[C@H](CO)NC(=O)[C@@H](NC(=O)[C@H](Cc1ccccc1)NC(=O)[C@@H](NC(=O)CNC(=O)[C@H](CCC(N)=O)NC(=O)[C@H](CO)NC(=O)[C@@H](N)Cc1c[nH]cn1)[C@@H](C)O)[C@@H](C)O)C(=O)N[C@@H](CC(=O)O)C(=O)N[C@@H](CCCCNC(=O)COCCOCCNC(=O)COCCOCCNC(=O)CC[C@H](NC(=O)CCCCCCCCCCCCCCCCC(=O)O)C(=O)O)C(=O)N[C@@H](CCCCN)C(=O)N[C@@H](CCCCN)C(=O)N[C@@H](C)C(=O)N[C@@H](CCC(N)=O)C(=O)N[C@@H](CCC(=O)O)C(=O)N[C@@H](Cc1ccccc1)C(=O)N[C@H](C(=O)N[C@@H](CCC(N)=O)C(=O)N[C@@H](Cc1c[nH]c2ccccc12)C(=O)N[C@@H](CC(C)C)C(=O)N[C@@H](CC(C)C)C(=O)N[C@@H](CC(N)=O)C(=O)N[C@H](C(=O)O)[C@@H](C)O)C(C)C` [Example 6] (H-HSQGTFTSDYSKYLDK([AEEA-AEEA-γGlu-C18 diacid])KKAQEFVQWLLNT-OH; N-terminus and C-terminus assumed), 0.02 nM.
The result for `CC(C)C[C@H](NC(=O)[C@H](Cc1ccc(O)cc1)NC(=O)[C@H](CCCCN)NC(=O)[C@H](CO)NC(=O)[C@H](Cc1ccc(O)cc1)NC(=O)[C@H](CC(=O)O)NC(=O)[C@H](CO)NC(=O)[C@@H](NC(=O)[C@H](Cc1ccccc1)NC(=O)[C@@H](NC(=O)CNC(=O)[C@H](CCC(N)=O)NC(=O)[C@H](CO)NC(=O)[C@@H](N)Cc1c[nH]cn1)[C@@H](C)O)[C@@H](C)O)C(=O)N[C@@H](CC(=O)O)C(=O)N[C@@H](CO)C(=O)N[C@@H](CCCNC(=N)N)C(=O)N[C@@H](CCCNC(=N)N)C(=O)N[C@@H](C)C(=O)N[C@@H](CCC(N)=O)C(=O)N[C@@H](CC(=O)O)C(=O)N[C@@H](Cc1ccccc1)C(=O)N[C@H](C(=O)N[C@@H](CCC(N)=O)C(=O)N[C@@H](CCCCNC(=O)COCCOCCNC(=O)COCCOCCNC(=O)CC[C@H](NC(=O)CCCCCCCCCCCCCCCCC(=O)O)C(=O)O)C(=O)N[C@@H](CC(C)C)C(=O)N[C@@H](CC(C)C)C(=O)N[C@@H](CC(N)=O)C(=O)N[C@H](C(=O)O)[C@@H](C)O)C(C)C` [Example 7] reads 0.155 nM; that for `CC(C)C[C@H](NC(=O)[C@H](Cc1ccc(O)cc1)NC(=O)[C@H](CCCCN)NC(=O)[C@H](CO)NC(=O)[C@H](Cc1ccc(O)cc1)NC(=O)[C@H](CC(=O)O)NC(=O)[C@H](CO)NC(=O)[C@@H](NC(=O)[C@H](Cc1ccccc1)NC(=O)[C@@H](NC(=O)CNC(=O)[C@H](CCC(N)=O)NC(=O)[C@H](CO)NC(=O)[C@@H](N)Cc1c[nH]cn1)[C@@H](C)O)[C@@H](C)O)C(=O)N[C@@H](CC(=O)O)C(=O)N[C@@H](CO)C(=O)N[C@@H](CCCNC(=N)N)C(=O)N[C@@H](CCCNC(=N)N)C(=O)N[C@@H](C)C(=O)N[C@@H](CCC(N)=O)C(=O)N[C@@H](CC(=O)O)C(=O)N[C@@H](Cc1ccccc1)C(=O)N[C@H](C(=O)N[C@@H](CCC(N)=O)C(=O)N[C@@H](Cc1c[nH]c2ccccc12)C(=O)N[C@@H](CC(C)C)C(=O)N[C@@H](CC(C)C)C(=O)N[C@@H](CCCCNC(=O)COCCOCCNC(=O)COCCOCCNC(=O)CC[C@H](NC(=O)CCCCCCCCCCCCCCCCC(=O)O)C(=O)O)C(=O)N[C@H](C(=O)O)[C@@H](C)O)C(C)C` [Example 8], 0.022 nM.
